Among the test systems are CAKI-1 renal; HCT-15 colon; HT29 colon; MCF7 breast; RPMI-8226 leukemia; SF-539 CNS; SN12C renal; SR leukemia; MALME-3M melanoma; RXF 393 renal.
Common to all, as to assay: NCI tumour cell line growth inhibition, 48 h

Several values for one entry are separate records, joined by “and”; a condition that tells them apart may be missing. Equal entries are not always repeated.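 Compound exposure: 48 hours, 5 concentrations, 96-well plates. GI50 is the concentration that inhibits growth by half. TGI is the concentration that stops growth completely.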

Turning to `COc1ccc(C2c3c(-c4ccccc4)nn(-c4ccccc4)c3Oc3ncn4nc(CC#N)nc4c32)cc1OC` (stereo unspecified), the TGI is > 100 µM and 13.8 µM in the assay with CAKI-1 renal; > 100 µM in the assay with HCT-15 colon; > 100 µM in the assay with HT29 colon; > 100 µM with MCF7 breast; > 100 µM with RPMI-8226 leukemia; 36.9 µM and > 27.6 µM in the assay on SF-539 CNS. The TGI was 44.5 µM and > 41.9 µM in the assay with SN12C renal; 33 µM with SR leukemia. In addition, the GI50 with HT29 colon is 99.9 µM and 14.8 µM; in the assay with MCF7 breast, 36500 nM and 99400 nM; in the assay on RPMI-8226 leukemia it was > 100000 nM and 20900 nM; in the assay on SF-539 CNS, 19200 nM and 2490 nM.

`Nc1c2ccccc2nc2ccccc12` (tested in a mixture with another compound): the GI50 with CAKI-1 renal is 1830 nM; in the assay with HCT-15 colon it was 2030 nM; in the assay with HT29 colon it was 1.08 µM; in the assay on MALME-3M melanoma, 2340 nM; with MCF7 breast, 1590 nM; in the assay on RPMI-8226 leukemia, 3860 nM. Also, the GI50 in the assay on RXF 393 renal is 1280 nM; with SF-539 CNS, 2440 nM; in the assay with SN12C renal it was 1.53 µM. In addition, the TGI in the assay on CAKI-1 renal was 5.11 µM; in the assay on HCT-15 colon, 10.4 µM; in the assay with HT29 colon, 3.48 µM; with MALME-3M melanoma, 5.28 µM; in the assay with MCF7 breast it was 9.72 µM; in the assay with RPMI-8226 leukemia, > 100 µM. The TGI stood at 3.27 µM in the assay with RXF 393 renal, 8.26 µM in the assay on SF-539 CNS and 12.2 µM with SN12C renal.

As for `CC(CN)[C@@H]1CC[C@]2(CO)CC[C@]3(C)[C@H](CC[C@@H]4[C@@]5(C)CCC(N)C(C)(C)[C@@H]5CC[C@]43C)[C@@H]12` (stereo partly specified), the GI50 was 1630 nM in the assay on CAKI-1 renal; 1690 nM in the assay with HCT-15 colon; 1.57 µM with HT29 colon; 1540 nM in the assay with MALME-3M melanoma; 1570 nM in the assay on MCF7 breast; 2060 nM in the assay with RPMI-8226 leukemia. Further, the GI50 is 1550 nM in the assay with RXF 393 renal, 1720 nM with SF-539 CNS and 1.91 µM in the assay on SN12C renal. For the same compound, the TGI turned out to be 3.12 µM with CAKI-1 renal; 3.49 µM in the assay on HCT-15 colon; 3.03 µM in the assay with HT29 colon; 3.29 µM in the assay with MALME-3M melanoma; 3.52 µM in the assay on MCF7 breast; 4.58 µM in the assay on RPMI-8226 leukemia. Moreover, the TGI was 3.07 µM in the assay with RXF 393 renal, 3.31 µM in the assay with SF-539 CNS and 3.67 µM with SN12C renal.

As to `COc1cc(/C=C2\C[C@H]3[C@@H]4CC=C5C[C@@H](OC(C)=O)CC[C@]5(C)[C@H]4CC[C@]3(C)[C@H]2OC(C)=O)ccc1OCCN1CCCCC1`, the GI50 was 15600 nM with CAKI-1 renal; 7590 nM in the assay with HCT-15 colon; 23.2 µM with HT29 colon; 10600 nM in the assay on MCF7 breast; 6940 nM in the assay with RXF 393 renal; 9560 nM with SF-539 CNS. Further, the GI50 with SN12C renal is 10.8 µM. The TGI with CAKI-1 renal is > 50 µM; with HCT-15 colon, 15.8 µM; with HT29 colon, > 50 µM; with MCF7 breast, 25 µM; with RXF 393 renal, 18.8 µM; in the assay with SF-539 CNS, 20.6 µM. The compound also registered a TGI in the assay with SN12C renal of 27.1 µM.

Consider `COc1cc(N2CCC(N3CCN(C)CC3)CC2)ccc1Nc1ncc(Cl)c(Nc2ccccc2S(=O)(=O)C(C)C)n1`, for which the GI50 is 650 nM in the assay with CAKI-1 renal; 1940 nM with HCT-15 colon; 0.0612 µM with HT29 colon; 1320 nM in the assay on MALME-3M melanoma; 114 nM with MCF7 breast; 924 nM with RPMI-8226 leukemia. Further, the values for the GI50 in the assay with RXF 393 renal, with SF-539 CNS and in the assay on SN12C renal were 600 nM, 1390 nM and 0.613 µM, respectively. In addition, the TGI with CAKI-1 renal is 6.51 µM; with HCT-15 colon it was 11.5 µM; with HT29 colon, 0.617 µM; with MALME-3M melanoma, 3.46 µM; with MCF7 breast it was 6.75 µM; with RPMI-8226 leukemia, 6.46 µM. Moreover, the TGI in the assay with RXF 393 renal was 1.86 µM; in the assay on SF-539 CNS, 2.74 µM; with SN12C renal it was 14.2 µM.

Regarding `C[C@@H]1OCC2(CCN(c3cnc(Sc4ccnc(N)c4Cl)c(N)n3)CC2)[C@@H]1N`, the GI50 was 3690 nM in the assay with CAKI-1 renal; > 100000 nM with HCT-15 colon; > 100 µM in the assay with HT29 colon; > 100000 nM in the assay with MALME-3M melanoma; > 100000 nM with MCF7 breast; 37600 nM in the assay with RPMI-8226 leukemia. Moreover, the GI50 was 3460 nM in the assay with RXF 393 renal, 24200 nM in the assay on SF-539 CNS and 27.7 µM with SN12C renal. The TGI in the assay with CAKI-1 renal, in the assay on HCT-15 colon, in the assay with HT29 colon, in the assay on MALME-3M melanoma, with MCF7 breast and with RPMI-8226 leukemia was > 100 µM each time. Besides, the TGI with RXF 393 renal was > 67.6 µM; in the assay on SF-539 CNS, > 100 µM; with SN12C renal, > 100 µM.

Regarding `CSC1(CC(=O)N2CCCCC2)C(=O)Nc2ccccc21` (stereo unspecified), the TGI with HCT-15 colon, in the assay with HT29 colon, in the assay with MALME-3M melanoma, with MCF7 breast, in the assay with RPMI-8226 leukemia and in the assay with SF-539 CNS was > 100 µM throughout.

As for `CN1CCN(CC(=O)N2c3cccc4cccc(c34)N(C(=O)CN3CCN(C)CC3)C2c2cn(-c3ccccc3)nc2-c2cccc([N+](=O)[O-])c2)CC1`, the GI50 in the assay with CAKI-1 renal is 1830 nM; in the assay with HCT-15 colon, 1980 nM; in the assay on HT29 colon it was 2.19 µM; with MALME-3M melanoma it was 1850 nM; in the assay on MCF7 breast, 1750 nM; with RPMI-8226 leukemia, 1760 nM. The GI50 with RXF 393 renal was 1580 nM; in the assay with SF-539 CNS, 1690 nM; in the assay on SN12C renal it was 1.99 µM. For the same compound, the TGI with CAKI-1 renal was 4.1 µM; in the assay with HCT-15 colon, 4.06 µM; with HT29 colon, 5.59 µM; with MALME-3M melanoma, 3.49 µM; in the assay on MCF7 breast it was 3.39 µM; with RPMI-8226 leukemia, 4.33 µM. The TGI with RXF 393 renal stood at 3.09 µM; in the assay with SF-539 CNS, 3.19 µM; in the assay on SN12C renal, 4.28 µM.

As to `Cc1nn(C)c2cc(N(C)c3ccnc(Nc4cccc(S(N)(=O)=O)c4)n3)ccc12`, the GI50 in the assay with CAKI-1 renal is 7170 nM; in the assay with HCT-15 colon, 9020 nM; with HT29 colon, 6.1 µM; with MALME-3M melanoma, 4720 nM; in the assay with MCF7 breast, 7110 nM; in the assay with RPMI-8226 leukemia it was 6820 nM. For the same compound, the GI50 was 5980 nM with RXF 393 renal, 8010 nM with SF-539 CNS and 6.59 µM in the assay with SN12C renal. Further, the TGI in the assay with CAKI-1 renal was > 22.6 µM; in the assay with HCT-15 colon, > 25 µM; with HT29 colon, > 25 µM; with MALME-3M melanoma, 21.8 µM; in the assay with MCF7 breast, > 25 µM; with RPMI-8226 leukemia it was > 25 µM. For the same compound, the TGI in the assay with RXF 393 renal was > 19.2 µM; in the assay on SF-539 CNS, > 25 µM; in the assay on SN12C renal it was > 25 µM.

Turning to `CC1=CC(=O)c2ccc(C)cc2C1=O`, the TGI is 14.9 µM in the assay with CAKI-1 renal; 27.3 µM in the assay with HCT-15 colon; > 100 µM in the assay on HT29 colon; 11.3 µM with MCF7 breast; 6.36 µM in the assay on RPMI-8226 leukemia; 30 µM in the assay on SF-539 CNS. The compound also showed a TGI in the assay with SN12C renal of 36.6 µM.

Turning to `CC(C)c1ccc2nc3ccc(C(=O)NCCN4CCN(c5ccccc5)CC4)cn3c(=O)c2c1`, the TGI in the assay with CAKI-1 renal, with HCT-15 colon, in the assay with HT29 colon and in the assay with MCF7 breast was > 100 µM throughout.

`CC(=O)[O][Bi]([c]1ccccc1)[c]1ccccc1`: the GI50 is 11100 nM in the assay with CAKI-1 renal; 1920 nM with HCT-15 colon; 18.1 µM with HT29 colon; 2620 nM in the assay with MCF7 breast; 2590 nM in the assay on RPMI-8226 leukemia; 2450 nM with RXF 393 renal. In addition, the GI50 in the assay on SF-539 CNS was 11100 nM; in the assay with SN12C renal it was 10.9 µM. Also, the TGI with CAKI-1 renal turned out to be 26.2 µM; in the assay with HCT-15 colon, 4.06 µM; with HT29 colon, 32.3 µM; in the assay with MCF7 breast it was 7.97 µM; in the assay with RPMI-8226 leukemia, 5.99 µM; in the assay with RXF 393 renal, 7.14 µM. In addition, the TGI in the assay with SF-539 CNS is 24.3 µM; in the assay with SN12C renal, 23.6 µM.

On to `C/C=C/C1=CN2C(=O)c3cc(OC4OC(C)C(NC)C(C)(O)C4O)c(C)c(O)c3N=C[C@@H]2C1` (stereo partly specified), for which the GI50 with CAKI-1 renal was 27.9 nM and < 10 nM; in the assay on RPMI-8226 leukemia, 45.7 nM and < 10 nM; in the assay with SF-539 CNS, 74.3 nM and < 10 nM; in the assay with SR leukemia, 25.3 nM and < 10 nM. Further, the TGI with HCT-15 colon worked out at 11 µM; in the assay with HT29 colon it was 10.2 µM; in the assay with MCF7 breast, 13.4 µM; in the assay with SN12C renal it was 1.21 µM.

For `N#CSc1ccc(S(N)(=O)=O)cc1`, the TGI is > 100 µM in the assay on CAKI-1 renal; > 100 µM in the assay with HCT-15 colon; > 100 µM in the assay with HT29 colon; > 100 µM in the assay on MALME-3M melanoma; > 100 µM in the assay with MCF7 breast; 61.5 µM with RPMI-8226 leukemia. The results for the TGI with RXF 393 renal, with SF-539 CNS and in the assay with SN12C renal were 70.6 µM, 68 µM and > 100 µM, respectively.

As for `COc1ccc(C(c2cc3c(cc2O)OCO3)N2CCOCC2)cc1OC` (stereo unspecified), the TGI was 25.4 µM with CAKI-1 renal; 15.8 µM with HCT-15 colon; 26 µM in the assay with HT29 colon; 25.7 µM in the assay with MALME-3M melanoma; > 100 µM in the assay on MCF7 breast; 58.2 µM with RXF 393 renal. For the same compound, the TGI worked out at 28.3 µM in the assay with SF-539 CNS and 22.3 µM in the assay on SN12C renal.

Turning to `COC(=O)C(=O)C(C(=O)OC)C(=O)C(=O)Nc1cc(Cl)c(Cl)cc1Cl` (stereo unspecified), the TGI in the assay with CAKI-1 renal is > 100 µM; in the assay with HCT-15 colon, > 100 µM; in the assay with HT29 colon, > 100 µM; in the assay with MALME-3M melanoma, > 100 µM; in the assay on RPMI-8226 leukemia it was 60.3 µM; in the assay on RXF 393 renal, > 100 µM. Moreover, the values for the TGI with SF-539 CNS, in the assay on SN12C renal and in the assay on SR leukemia were > 100 µM, > 100 µM and 56.7 µM, respectively.

Source of the values: PubChem BioAssay (NCI).
